According to US12459951B2, “Compounds that interact with RAS superfamily proteins for treatment of cancers, inflammatory diseases, rasopathies, and fibrotic disease” (SHY Therapeutics, LLC, priority 2022, dated 2025):

Legend:
[1] = test system: KRas G12D mutant; assay: Ras GTP Binding Domain Inhibition Assay (Ras Superfamily Assay); conditions: 20 μM compound; for KRas G12D mutant + SOS: % inh.: with SOS; for KRas G12D mutant: % inh.: without SOS
In short: (§1)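 Ni-plate capture of His-tagged protein (10-30 μg/mL, o/n 4° C); cpd 20 μM or dilution series, 1% DMSO, 3 h RT ± Sos 556-1049 last h; 100 nM Cy-labelled GTP 45 min RT; 3× wash; fluorescence read.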

[2] = molecular target: T1, Rho-A (Homo sapiens, UniProt P61586); assay: as above; conditions: read-out: Rho-A: % inh..
T1 construct: made in house
In short: as §1

[3] = test system: KRas Q61H mutant; assay: as above; conditions: 20 μM compound; for KRas Q61H mutant + SOS: % inh.: with SOS; for KRas Q61H mutant: % inh.: without SOS
In short: as §1

[4] = test system: Akt phosphorylation; assay: Akt Phosphorylation Assay (western blot), Panc-1; assay type: cell-based, human; conditions: at 10 μM, * = activation
In short: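 Panc-1 (KRas G12D) cells were treated with compound at 10 μM final (0.3% DMSO) for 6 h at 37 °C, or with serial dilutions for IC50. Cells were either serum-starved overnight in 0.5% FBS and then stimulated with 1.5 ng/ml EGF for 15 min, or kept in 10% FBS without stimulation. Akt Ser473 phosphorylation in lysates was read by western blot.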

T1 sequence (P61586 whole entry): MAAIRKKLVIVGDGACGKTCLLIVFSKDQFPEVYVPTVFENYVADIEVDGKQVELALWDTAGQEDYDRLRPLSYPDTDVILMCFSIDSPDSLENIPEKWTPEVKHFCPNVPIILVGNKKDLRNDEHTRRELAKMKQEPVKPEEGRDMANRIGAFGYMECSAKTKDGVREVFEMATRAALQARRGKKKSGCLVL

SMILES | KRas G12D mutant + SOS: % inh. [1] | KRas G12D mutant: % inh. [1] | inhibition at 20 µM [2] | KRas Q61H mutant + SOS: % inh. [3] | KRas Q61H mutant: % inh. [3] | % inh of Akt phosphorylation in Panc-1 [4]
Cc1c(-c2ccn(C(C)C)n2)cn2nc(-c3nccn3C)nc(Nc3nnc(C4CC4)o3)c12 [Compound 67, 5-Cyclopropyl-N-(6-(1-isopropyl-1H-pyrazol-3-yl)-5-methyl-2-(1-methyl-1H-imidazol-2-yl)pyrrolo[2,1-f][1,2,4]triazin-4-yl)-1,3,4-oxadiazol-2-amine] | C (C = 50-75% inhibition) | C (C = 50-75% inhibition) | 76 to 100% | C (C = 50-75% inhibition) | C (C = 50-75% inhibition) | D* (85-100% activation)
Cc1c(-c2ccn(C(C)C)n2)cn2nc(-c3nccn3C)nc(Nc3cc(C4CC4)n[nH]3)c12 [Compound 68, N-(3-Cyclopropyl-1H-pyrazol-5-yl)-6-(1-isopropyl-1H-pyrazol-3-yl)-5-methyl-2-(1-methyl-1H-imidazol-2-yl)pyrrolo[2,1-f][1,2,4]triazin-4-amine] | D (D = 76-100% inhibition) | D (D = 76-100% inhibition) | 76 to 100% | D (D = 76-100% inhibition) | D (D = 76-100% inhibition) | D* (85-100% activation)
Cc1c(-c2ccn(C(C)C)n2)cn2nc(-c3nccn3C)nc(Nc3cc(C4CC4)no3)c12 [Compound 69, 3-Cyclopropyl-N-(6-(1-isopropyl-1H-pyrazol-3-yl)-5-methyl-2-(1-methyl-1H-imidazol-2-yl)pyrrolo[2,1-f][1,2,4]triazin-4-yl)isoxazol-5-amine] | A (A = 1-25% inhibition) | A (A = 1-25% inhibition) | 1 to 25% | 0 (0 = 0% inhibition) | A (A = 1-25% inhibition) | D* (85-100% activation)
Cc1c(-c2ccn(C(C)C)n2)cn2nc(-c3nccn3C)nc(Nc3nc(C4CC4)no3)c12 [Compound 70, 3-Cyclopropyl-N-(6-(1-isopropyl-1H-pyrazol-3-yl)-5-methyl-2-(1-methyl-1H-imidazol-2-yl)pyrrolo[2,1-f][1,2,4]triazin-4-yl)-1,2,4-oxadiazol-5-amine] | A (A = 1-25% inhibition) | A (A = 1-25% inhibition) | 1 to 25% | 0 (0 = 0% inhibition) | A (A = 1-25% inhibition) | C* (46-84% activation)
COc1ccc(Nc2nc(-c3nccn3C)nn3cc(-c4ccn(C(C)C)n4)c(C)c23)cn1 [Compound 71, 6-(1-Isopropyl-1H-pyrazol-3-yl)-N-(6-methoxypyridin-3-yl)-5-methyl-2-(1-methyl-1H-imidazol-2-yl)pyrrolo[2,1-f][1,2,4]triazin-4-amine] | A (A = 1-25% inhibition) | A (A = 1-25% inhibition) | 1 to 25% | 0 (0 = 0% inhibition) | 0 (0 = 0% inhibition) | D* (85-100% activation)
Cc1c(-c2ccn(C(C)C)n2)cn2nc(-c3nccn3C)nc(Nc3ccn(C(C)C)n3)c12 [Compound 72, N,6-bis(1-Isopropyl-1H-pyrazol-3-yl)-5-methyl-2-(1-methyl-1H-imidazol-2-yl)pyrrolo[2,1-f][1,2,4]triazin-4-amine] | D (D = 76-100% inhibition) | D (D = 76-100% inhibition) | 76 to 100% | D (D = 76-100% inhibition) | C (C = 50-75% inhibition) | D* (85-100% activation)
COc1cncnc1Nc1nc(-c2nccn2C)nn2cc(-c3ccn(C(C)C)n3)c(C)c12 [Compound 73, 6-(1-Isopropyl-1H-pyrazol-3-yl)-N-(5-methoxypyrimidin-4-yl)-5-methyl-2-(1-methyl-1H-imidazol-2-yl)pyrrolo[2,1-f][1,2,4]triazin-4-amine] | B (B = 26-49% inhibition) | C (C = 50-75% inhibition) | 76 to 100% | C (C = 50-75% inhibition) | C (C = 50-75% inhibition) | D* (85-100% activation)
